Measured values reported in PMC8010149, “A Therapeutic Strategy to Combat HIV-1 Latently Infected Cells With a Combination of Latency-Reversing Agents Containing DAG-Lactone PKC Activators” (Frontiers in Microbiology, 2021).
pEC50: −log10 of the molar value.

Tests used:
[1] = Pharmacokinetics in mice, plasma concentration by LC-MS/MS; type: in vivo; details: BALB/c mice, 10 mg/kg subcutaneous
Protocol: Blood was drawn from mice at 0.5, 1, 3, 6, 12, and 24 h after subcutaneous administration of YSE028 at a dose of 10 mg/kg. Plasma samples were prepared on ice. Blood was collected in a heparin tube and then separated at 5,000 rpm for 10 min at 4°C. Two hundred microliter of MeOH was added to 40 μl of mouse plasma immediately after plasma collection to terminate the enzymatic hydrolysis of YSE028 during sample preparation. All samples were vortexed for 10s and centrifuged at 12,000 g for 10 min at 4°C. The supernatant was then separated. Alectinib (10 ng/ml) in MeOH was used as an internal standard (IS) and added to the supernatant for liquid chromatography tandem mass spectrometry (LC-MS/MS) analysis.
A Nexera X2 UHPLC system (Shimadzu, Kyoto, Japan) connected to a QTRAP5500 mass spectrometer (AB SCIEX, Framingham, MA, United States) was used for LC-MS/MS analysis. The separation of YSE028 and alectinib (IS) was performed using an XBridge C18 column (2.1 × 50 mm, 3.5 μm, Waters). The mobile phases consisted of 10 mM ammonium formate (A) and MeOH (B). The run time was 6 min with a flow rate of 0.5 ml/min. The oven temperature was set to 40°C, and the autosampler chamber was maintained at 4°C. The gradient elution program was set as follows: 0–3.0 min, 60–80% B; 3.1 min–4.0 min, 95% B; and 4.1 min–6 min, 60% B. The sample injection volume was 5 μl. The electrospray ionization interface in positive mode was used to perform tandem mass spectrometry (MS/MS). The MRM transition for YSE028 was m/z 313.1→187.1. The MS parameters were optimized as follows: desolvation temperature, 500°C; curtain gas (CUR), 40; collision gas (CAD), 7; ionspray voltage (IS), 4500v; ion source gas (GS1), 50 psi; ion source gas (GS2), 80 psi; declustering potential (DP), 110 v; entrance potential (EP), 10v; collision energy (CE), 13v; collision cell exit potential (CXP), 20v.

[2] = system: HIV-1 latently infected U1 cells; assay: Intracellular HIV-1 p24 by flow cytometry in U1 cells; type: cell-based; details: 24 h
Protocol: (§1) The reactivation of HIV-1 from latently infected cells was determined by intracellular p24 protein expression and quantification of p24 antigen in the supernatant (ACH-2 and U1 cells), or by changes in intracellular green fluorescent protein (GFP) expression (J-Lat 10.6 cells). J-Lat ([Jordan et al., 2003]), ACH-2, or U1 cells (5 × 10^5 cells/ml) were seeded in 96-well plates and incubated with different drug concentrations for 24 h to collect the cells. The supernatant was collected after 48 h. The increase in supernatant p24 antigen levels was measured using a Lumipulse G1200 (FUJIREBIO, Tokyo, Japan). J-Lat cells (5 × 10^5 cells/ml) were placed in 48-well plates and incubated with different drug concentrations for 24 h. Intracellular p24 protein expression and GFP-positive cells were analyzed by flow cytometry.
(§2) The amount of intracellular HIV-1 p24 and the active form of caspase-3 were determined by flow cytometry, as previously described ([Matsuda et al., 2015], [2019]). In brief, ACH-2 and U1 cells (2.5 × 10^5 cells/ml) were fixed with 1% paraformaldehyde/PBS for 20 min and permeabilized with Flow Cytometry Perm Buffer (TONBO Biosciences, San Diego, CA, United States). After 5 min of incubation at room temperature, the cells were stained with FITC anti-HIV-1 p24 (24-4) monoclonal antibody (mAb; Santa Cruz Biotechnology, Dallas, TX, United States) or Alexa Fluor 647-conjugated anti-active caspase-3 (C92-605) mAb (BD Pharmingen, San Diego, CA, United States) for 30 min on ice. For T cell activation and exhaustion marker staining, PBMCs from healthy donors separated by the above density gradient centrifugation method were incubated with fixable viability stain Ghost Dye 780 (TONBO Biosciences) for 30 min on ice. The cells were then stained with Brilliant Violet 510 anti-human CD3 (UCHT1) mAb (BioLegend), FITC anti-human CD4 (RPA-T4) mAb (TONBO Biosciences), PE-Cy7 anti-human CD8a (RPA-T8) mAb (TONBO Biosciences), PerCP-Cy5.5 anti-human CD38 (HB-7) mAb (BioLegend), PE anti-human CD69 (FN50) mAb (BioLegend), or Alexa Fluor 647 anti-human CD279/PD-1 (EH12.1) mAb (BD Biosciences, San Jose, CA, United States) for 30 min on ice. Next, the cells were analyzed using BD FACSVerse (BD Biosciences). In the analysis, unstained cells were used as a negative control to set the gating for each experiment. The collected data were analyzed using FlowJo software (Tree Star, San Carlos, CA, United States).

[3] = Cytotoxicity of LRAs in U937 cells; type: cell-based; details: human, day 7
Protocol: (§3) To determine the cytotoxicity of LRAs, A3.01, and U937 cells (5 × 10^5 cells/ml), which are the parental cells for ACH-2 and U1 cells, respectively, were cultured in the presence or absence of LRAs. After 7 days, cell viability was examined using the Cell Counting Kit-8 assay (Dojindo, Kumamoto, Japan) according to the manufacturer’s instructions. The numbers of living cells after drug treatment were measured and compared to those in untreated cells and are presented as a percentage relative to the control.

ACH-2 cells = assay: Active caspase-3 by flow cytometry in ACH-2 cells; type: cell-based; details: 10 µM, 24 h
Protocol: as §2, with “The cells were then stained with Brilliant Violet 510 anti-human CD3 (UCHT1) mAb (BioLegend), FITC anti-human CD4 (RPA-T4) mAb (TONBO Biosciences), PE-Cy7 anti-human CD8a (RPA-T8) mAb (TONBO Biosciences), PerCP-Cy5.5 anti-human CD38 (HB-7) mAb (BioLegend), PE anti-human CD69 (FN50) mAb (BioLegend), or Alexa Fluor 647 anti-human CD279/PD-1 (EH12.1) mAb (BD Biosciences, San Jose, CA, United States) for 30 min on ice.” left out, “In the analysis, unstained cells were used as a negative control to set the gating for each experiment.” left out

[4] = Cytotoxicity of LRAs in A3.01 cells; type: cell-based; details: human, day 7
Protocol: as §3

[5] = system: HIV-1 latently infected ACH-2 cells; assay: HIV-1 latency reversal, p24 antigen in supernatant, ACH-2 cells; type: cell-based; details: Human immunodeficiency virus 1, ACH-2, 48 h
Protocol: as §1

A3.01 cells = assay: Active caspase-3 by flow cytometry in A3.01 cells; type: cell-based; details: 10 μM, 24 h
[6] = system: CD4+ or CD8+ primary T cells; assay: T cell activation, CD69 expression on CD4+ or CD8+ primary T cells; type: cell-based, human; details: 1 μM, 24 h, compared to prostratin and PEP005
Protocol: as §2, with “The cells were then stained with Brilliant Violet 510 anti-human CD3 (UCHT1) mAb (BioLegend), FITC anti-human CD4 (RPA-T4) mAb (TONBO Biosciences), PE-Cy7 anti-human CD8a (RPA-T8) mAb (TONBO Biosciences), PerCP-Cy5.5 anti-human CD38 (HB-7) mAb (BioLegend), PE anti-human CD69 (FN50) mAb (BioLegend), or Alexa Fluor 647 anti-human CD279/PD-1 (EH12.1) mAb (BD Biosciences, San Jose, CA, United States) for 30 min on ice.” left out, “In the analysis, unstained cells were used as a negative control to set the gating for each experiment.” left out

Compound: CCCC(CCC)C(=O)OCC1(CO)CC(=C(C)C)C(=O)O1 (stereo not drawn) [YSE028]
- time within which the concentration in blood decreased rapidly [1]: ≤ 3 h
- peak concentration (median) ([1]; plasma): 5.14 ng/mL
- Tmax ([1]; mouse, sc, plasma, read-out: time of peak concentration): 1 h
- intracellular p24-positive live cells (flow cytometry quadrant) ([2]; 0.1 µM): 0.239
- intracellular p24-positive live cells (flow cytometry quadrant) ([2]; 1 µM): 1.13
- intracellular p24-positive live cells (flow cytometry quadrant) ([2]; 10 µM): 36.3
- CC50 at 7 days [3]: > 100 µM
- caspase-3 activation (ACH-2 cells): 17.85%
- CC50 at 7 days [4]: > 100 µM
- pEC50 [5]: 6.06
- caspase-3 activation (A3.01 cells): 5.81%
- CD69+ cells in primary T cells (global T cell activation) [6]: less effect
